Values of other authors as cited in patent US5843995A, “Inhibition of HIV-1 replication using oligocarbamate derivatives” (University of Medicine and Dentistry of New Jersey, priority 1997, dated 1998).

Tested on: HIV-1
Settings: cells pretreated with peptide 24 hours prior to infection

CC(=O)N[C@H](CCCNC(=N)N)C(=O)N[C@H](CCCNC(=N)N)C(=O)N[C@H](CCCNC(=N)N)C(=O)N[C@H](CCCNC(=N)N)C(=O)N[C@H](CCCNC(=N)N)C(=O)N[C@H](CCCNC(=N)N)C(=O)N[C@H](CCCNC(=N)N)C(=O)N[C@H](CCCNC(=N)N)C(=O)N[C@H](CCCNC(=N)N)C(N)=O [N-acetyl-(DArg)9 -NH2]
mechanism of antiviral activity: via inhibition of viral entry
